Literature values, collected in patent publication US7361646B2, “Methods for treating gastroesophageal reflux disease” (Corcept Therapeutics, Inc., priority 2002, dated 2008).

What was measured:
[1] = in one study (Kawai)
[2] = biological target: T1, glucocorticoid (GR) receptors (Homo sapiens, UniProt P04150); conditions: result in words
T1 sequence (P04150 1-777): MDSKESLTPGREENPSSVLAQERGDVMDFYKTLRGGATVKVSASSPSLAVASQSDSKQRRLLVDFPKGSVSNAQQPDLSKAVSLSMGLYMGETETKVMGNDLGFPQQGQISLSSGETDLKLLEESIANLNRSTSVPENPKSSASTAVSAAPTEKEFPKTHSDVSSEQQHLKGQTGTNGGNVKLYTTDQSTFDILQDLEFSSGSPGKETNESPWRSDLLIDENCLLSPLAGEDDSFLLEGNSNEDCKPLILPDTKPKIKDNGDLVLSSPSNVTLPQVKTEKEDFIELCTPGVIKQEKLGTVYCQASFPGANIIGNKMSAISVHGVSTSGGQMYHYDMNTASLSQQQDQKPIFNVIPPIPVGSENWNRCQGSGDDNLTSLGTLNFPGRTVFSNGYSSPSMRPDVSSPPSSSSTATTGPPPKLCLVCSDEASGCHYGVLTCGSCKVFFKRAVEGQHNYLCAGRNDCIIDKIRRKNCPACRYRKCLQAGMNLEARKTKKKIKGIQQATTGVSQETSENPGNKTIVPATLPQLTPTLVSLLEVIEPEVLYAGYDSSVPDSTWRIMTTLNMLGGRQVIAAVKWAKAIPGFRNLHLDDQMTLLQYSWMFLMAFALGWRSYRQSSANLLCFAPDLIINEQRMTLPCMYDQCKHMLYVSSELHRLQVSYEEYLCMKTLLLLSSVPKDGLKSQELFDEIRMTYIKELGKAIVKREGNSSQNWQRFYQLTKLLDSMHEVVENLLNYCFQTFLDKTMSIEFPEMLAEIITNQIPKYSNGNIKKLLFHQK

progesterone receptor = biological target: T2, progesterone receptor (Homo sapiens, UniProt P06401); conditions: result in words
T2 sequence (P06401 1-933): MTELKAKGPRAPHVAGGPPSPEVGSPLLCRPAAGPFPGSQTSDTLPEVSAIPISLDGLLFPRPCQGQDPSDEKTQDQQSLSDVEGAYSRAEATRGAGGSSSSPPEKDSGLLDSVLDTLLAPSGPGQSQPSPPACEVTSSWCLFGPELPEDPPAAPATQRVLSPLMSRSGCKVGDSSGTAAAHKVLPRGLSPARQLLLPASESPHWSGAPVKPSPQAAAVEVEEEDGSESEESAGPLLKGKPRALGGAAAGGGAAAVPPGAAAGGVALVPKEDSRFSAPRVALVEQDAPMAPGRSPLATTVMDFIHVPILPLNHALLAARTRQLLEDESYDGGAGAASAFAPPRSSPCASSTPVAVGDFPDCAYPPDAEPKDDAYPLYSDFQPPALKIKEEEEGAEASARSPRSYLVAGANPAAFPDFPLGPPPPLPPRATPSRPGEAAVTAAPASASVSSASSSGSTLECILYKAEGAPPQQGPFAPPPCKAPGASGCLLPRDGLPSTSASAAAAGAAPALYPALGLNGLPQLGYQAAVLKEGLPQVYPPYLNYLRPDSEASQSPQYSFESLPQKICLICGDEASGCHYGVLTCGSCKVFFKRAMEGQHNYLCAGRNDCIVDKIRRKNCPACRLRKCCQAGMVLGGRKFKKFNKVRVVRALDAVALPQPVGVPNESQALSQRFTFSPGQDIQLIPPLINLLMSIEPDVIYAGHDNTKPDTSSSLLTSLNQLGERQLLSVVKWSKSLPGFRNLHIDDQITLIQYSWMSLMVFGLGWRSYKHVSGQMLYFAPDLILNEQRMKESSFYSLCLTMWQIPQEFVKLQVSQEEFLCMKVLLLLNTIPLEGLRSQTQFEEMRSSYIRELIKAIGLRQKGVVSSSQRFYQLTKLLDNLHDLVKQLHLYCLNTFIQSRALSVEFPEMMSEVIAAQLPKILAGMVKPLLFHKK

[3] = biological target: T3, Mineralocorticoid receptors (MRs) (Homo sapiens, UniProt P08235); conditions: MR versus GR
T3 sequence (P08235 1-984): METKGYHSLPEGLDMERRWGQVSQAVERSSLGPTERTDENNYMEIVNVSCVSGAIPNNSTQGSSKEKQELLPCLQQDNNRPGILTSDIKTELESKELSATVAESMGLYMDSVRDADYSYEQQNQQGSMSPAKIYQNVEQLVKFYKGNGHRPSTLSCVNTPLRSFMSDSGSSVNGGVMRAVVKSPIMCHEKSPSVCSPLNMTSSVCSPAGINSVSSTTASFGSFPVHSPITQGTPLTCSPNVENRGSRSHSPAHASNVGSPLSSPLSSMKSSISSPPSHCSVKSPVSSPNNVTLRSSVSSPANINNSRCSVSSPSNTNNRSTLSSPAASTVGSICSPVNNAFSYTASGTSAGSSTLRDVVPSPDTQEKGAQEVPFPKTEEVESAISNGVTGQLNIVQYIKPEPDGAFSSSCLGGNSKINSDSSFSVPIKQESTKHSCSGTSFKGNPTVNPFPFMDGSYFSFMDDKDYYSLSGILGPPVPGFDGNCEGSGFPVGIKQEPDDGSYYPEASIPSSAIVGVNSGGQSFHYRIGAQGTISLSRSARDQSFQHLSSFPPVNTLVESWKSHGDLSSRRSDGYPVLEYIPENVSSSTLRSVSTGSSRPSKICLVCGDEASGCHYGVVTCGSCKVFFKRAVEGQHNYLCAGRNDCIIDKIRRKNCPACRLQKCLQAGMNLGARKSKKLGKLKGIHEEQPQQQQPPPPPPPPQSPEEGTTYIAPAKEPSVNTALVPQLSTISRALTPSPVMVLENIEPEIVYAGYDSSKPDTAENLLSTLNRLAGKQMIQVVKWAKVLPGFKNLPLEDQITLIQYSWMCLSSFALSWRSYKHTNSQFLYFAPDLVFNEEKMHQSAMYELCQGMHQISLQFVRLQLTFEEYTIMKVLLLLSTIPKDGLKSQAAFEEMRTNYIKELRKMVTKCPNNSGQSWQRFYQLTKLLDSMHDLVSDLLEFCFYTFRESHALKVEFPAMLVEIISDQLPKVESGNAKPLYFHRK

Compound | share of the daily dose excreted in the urine [1] | GR antagonist effect [2] | progesterone receptor antagonist effect (progesterone receptor) | affinity of MRs for cortisol relative to GRs for glucocorticoids [3]
CC#C[C@]1(O)CC[C@H]2[C@@H]3CCC4=CC(=O)CCC4=C3[C@@H](c3ccc(N(C)C)cc3)C[C@@]21C [Mifepristone, (11β,17β) 11[4(dimethylamino)phenyl]-17hydroxy-17(1 propynyl)estra-4,9dien-3one] | less than 0.5 % of the daily dose | powerful antagonist | powerful antagonist | –
CC#C[C@]1(O)CC[C@H]2[C@@H]3CCC4=CC(=O)CCC4=C3[C@@H](c3ccc(OCCN(C)C)cc3)C[C@@]21C [RU009, 11β-(4-dimethylaminoethoxyphenyl)-17α-propynyl-17β-hydroxy-4,9-estradien-3-one] | – | shown to have GR antagonist effects | – | –
C[C@]12CCC(=O)C=C1CC[C@@H]1[C@@H]2[C@@H](O)C[C@@]2(C)[C@H]1CC[C@]2(O)C(=O)CO [cortisol] | – | – | – | ten-fold higher affinity
